In data set [1] the test system is SUDHL5 cells. The data set can be described thus: Induction of caspase-3/7 activity (Caspase-Glo 3/7), SUDHL5. The class given is cell-based. Particulars: EC50, median, SUDHL5, 3 h treatment. In short, it runs like this:
(§1)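 Caspase-Glo 3/7 luminescence after 3 h compound treatment, 37 °C, humidified; medium-only background subtracted; rim wells excluded.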

Data set [2] has as its system SUDHL5 cells. As to the kind of experiment: Induction of cytotoxicity (CellTiter-Glo, 5 h), SUDHL5. Particulars: SUDHL5, 5 h.
A further data set relates to HMC-1-8 cells. As to the kind of experiment: Antiproliferation assay (CellTiter-Glo, 72 h), HMC-1-8. The data set is classed as cell-based. Particulars: IC50, median, HMC-1-8, 72 h, read-out: Antiproli HMC-1-8 [M] median. The method, boiled down: (§2)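 CellTiter-Glo luminescence readout; 72 h compound exposure, 37 °C, humidified; rim wells excluded; time-zero reference plate plated in parallel and read identically.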

For data set [3], the system named is SUDHL10 cells. As to the kind of experiment: Induction of caspase-3/7 activity (Caspase-Glo 3/7), SUDHL10. The following applies: EC50, median, SUDHL10, 3 h treatment. The data set is classed as cell-based. In short, it runs like this: as §1
The subject of data set [4] is SUDHL5 cells. The data set can be described thus: Antiproliferation assay (CellTiter-Glo, 72 h), SUDHL5. The data set is classed as cell-based. The following applies: IC50, median, SUDHL5, 72 h, read-out: Antiproli SUDHL5 [M] (median). The method, boiled down: as §2
For data set [5], the system named is SUDHL10 cells. The data set can be described thus: Induction of cytotoxicity (CellTiter-Glo, 5 h), SUDHL10. Particulars: SUDHL10, 5 h.
Description: Therefore, cytotoxicity assays were run in parallel in SUDHL5 and SUDHL10 cells.
The different cell lines were plated in culture medium (RPMI 1640 [GIBCO #22400-089] supplemented with 10% Fetal Bovine Serum) at a density of 3,300 cells in 30 μL/well in a sterile, solid black, flat bottom, polystyrene, TC-treated 384-well microplate (Corning #3571) using Multidrop Combi Reagent Dispenser. As a control, medium without cells was also added to the plate. Cells were incubated in a humidified incubator at 37° C. overnight. […] Rim wells were excluded. The cells were incubated for 5 h hours in a humidified incubator at 37° C. After this incubation, 30 μL of CellTiter-Glo® Luminescent Cell Viability reagent (Promega, G7573) was added to each well using the Multidrop Combi Reagent Dispenser, followed by 15 min incubation on a shaker at room temperature. Finally, luminescence was read at 0.1 ms, with a gain of 3000 using the PHERAstar FS microplate reader (BMG Labtech).
The subject of a further data set is AMO-1 cells. As to the kind of experiment: Antiproliferation assay (CellTiter-Glo, 72 h), AMO-1. The following applies: IC50, median, AMO-1, 72 h, read-out: Antiproli AMO-1 [M] median. The class given is cell-based. The method, boiled down:
as §2

The mark [6] stands for this setting: Homo sapiens, SU-DHL-5, 5 h, read-out: Cytotox SUDHL5 [M] (median), IC50, median.
The mark [7] stands for this setting: Homo sapiens, SU-DHL10, 5 h, read-out: Cytotox SUDHL10 [M] (median), IC50, median.

Structures can show the parent of a compound that is named as a salt. Where two headings read alike, the source gives them in different places.

Regarding `CCOC(=O)c1c(CCCOc2cccc3cc(F)ccc23)c2ccc(Cl)c3c2n1CC(F)(F)CCOCc1nn(C)c(CC)c1-3`, under “from CCOC(=O)c1[nH]c2c(-c3c(COCCC(F)(F)CO)nn(C)c3CC)c(Cl)ccc2c1CCCOc1cccc2cc(F)ccc12, amine bond, PPh3/di-tert-butyl azodicarboxylate (Mitsunobu), THF, 23.5 mM”, the ring closure, yield of all isomers worked out at 81.9%.

Under “from CCOC(=O)c1[nH]c2c(-c3c(CCCN(CCOS(C)(=O)=O)S(=O)(=O)c4ccccc4[N+](=O)[O-])nn(C)c3CC)c(Cl)ccc2c1CCCOc1cccc2cc(F)ccc12, amine bond, NaH, DMF, 56.65 mM, 40.0 °C”, `CCOC(=O)c1c(CCCOc2cccc3cc(F)ccc23)c2ccc(Cl)c3c2n1CCN(S(=O)(=O)c1ccccc1[N+](=O)[O-])CCCc1nn(C)c(CC)c1-3` gave a ring closure, yield of all isomers of 70.4%.

For `CCOC(=O)c1c(CCCOc2cccc3cc(F)ccc23)c2ccc(Cl)c3c2n1C[C@@H]1C[C@@H]1COCc1nn(C)c(CC)c1-3` (single isomer, unassigned), the ring closure, yield of all isomers (from CCOC(=O)c1[nH]c2c(-c3c(COC[C@H]4C[C@H]4CO)nn(C)c3CC)c(Cl)ccc2c1CCCOc1cccc2cc(F)ccc12, amine bond, PPh3/di-tert-butyl azodicarboxylate (Mitsunobu), THF, 24.7 mM) was determined as 84.6%.

`CCOC(=O)c1c(CCCOc2cccc3ccccc23)c2ccc(Cl)c3c2n1CCC1(CC1)COCc1nn(C)c(CC)c1-3` gave a ring closure, yield of all isomers (from CCOC(=O)c1[nH]c2c(-c3c(COCC4(CCO)CC4)nn(C)c3CC)c(Cl)ccc2c1CCCOc1cccc2ccccc12, amine bond, triphenylphosphine / diisopropyl azodicarboxylate, THF, 98.3 mM) of 87.9%.

The molecule `CCOC(=O)c1c(CCCOc2cccc3ccccc23)c2ccc(Cl)c3c2n1C[C@@H]1CC[C@@H]1COCc1nn(C)c(C)c1-3` came in with a ring closure, yield of all isomers (from CCOC(=O)c1[nH]c2c(-c3c(COC[C@H]4CC[C@H]4CO)nn(C)c3C)c(Cl)ccc2c1CCCOc1cccc2ccccc12, amine bond, PPh3/di-tert-butyl azodicarboxylate, THF, 14.5 mM) of 34.5%.

Molecule `CCOC(=O)c1c(CCCOc2cccc3cc(F)ccc23)c2ccc(Cl)c3c2n1CCCCN(C)Cc1nn(C)c(CC)c1-3` displayed a ring closure, yield of all isomers (from CCOC(=O)c1c(CCCOc2cccc3cc(F)ccc23)c2ccc(Cl)c(-c3c(CBr)nn(C)c3CC)c2n1CCCCNC, amine bond, cesium carbonate, DMF, 214.0 mM, 60.0 °C) of 22%.

The molecule `CCOC(=O)c1c(CCCOc2cccc3cc(F)ccc23)c2ccc(Cl)c3c2n1CCC(F)(F)COCc1nn(C)c(CC)c1-3` showed a ring closure, yield of all isomers (from CCOC(=O)c1[nH]c2c(-c3c(COCC(F)(F)CCO)nn(C)c3CC)c(Cl)ccc2c1CCCOc1cccc2cc(F)ccc12, amine bond, triphenylphosphine / di-tert-butyl azodicarboxylate, THF) of 72.9%.

As for `CCOC(=O)c1c(CCCOc2cccc3cc(F)ccc23)c2ccc(Cl)c3c2n1CCC1(CC1)COCc1nn(C)c(CC)c1-3`, the ring closure, yield of all isomers (from CCOC(=O)c1[nH]c2c(-c3c(COCC4(CCO)CC4)nn(C)c3CC)c(Cl)ccc2c1CCCOc1cccc2cc(F)ccc12, amine bond, PPh3/di-tert-butyl azodicarboxylate (Mitsunobu), THF, 83.2 mM) turned out to be 86.6%.

Consider `CCOC(=O)c1c(CCCO[Si](C)(C)C(C)(C)C)c2ccc(Cl)c3c2n1CCCCCCc1nn(C)c(CC)c1-3`, for which the ring closure, yield of all isomers (from CCOC(=O)c1[nH]c2c(-c3c(CCCCCCBr)nn(C)c3CC)c(Cl)ccc2c1CCCO[Si](C)(C)C(C)(C)C, amine bond, Cs2CO3, DMF, 71.8 mM) was determined as 99.5%.

On to `CCOC(=O)c1c(CCCOc2cccc3cc(F)ccc23)c2ccc(Cl)c3c2n1CC(F)(F)CCN(S(=O)(=O)c1ccccc1[N+](=O)[O-])Cc1nn(C)c(CC)c1-3`, for which the ring closure, yield of all isomers (from CCOC(=O)c1[nH]c2c(-c3c(CN(CCC(F)(F)COS(=O)(=O)C(F)(F)F)S(=O)(=O)c4ccccc4[N+](=O)[O-])nn(C)c3CC)c(Cl)ccc2c1CCCOc1cccc2cc(F)ccc12, amine bond, NaH, DMF, 259.0 mM) is 41.3%.

As to `CCOC(=O)c1c(CCCOc2cccc3cc(F)ccc23)c2ccc(Cl)c3c2n1CC(F)(F)CCOCc1nn(C)c(C)c1-3`, the ring closure, yield of all isomers (from CCOC(=O)c1[nH]c2c(-c3c(COCCC(F)(F)CO)nn(C)c3C)c(Cl)ccc2c1CCCOc1cccc2cc(F)ccc12, amine bond, triphenylphosphine / di-tert-butyl azodicarboxylate, THF, 32.0 h) was 46.9%.

In turn, `CCOC(=O)c1c(CCCOc2cccc3cc(F)ccc23)c2ccc(Cl)c3c2n1CCCCNCc1nn(C)c(C)c1-3` yielded a ring closure, yield of all isomers (from CCOC(=O)c1c(CCCOc2cccc3cc(F)ccc23)c2ccc(Cl)c(-c3c(CBr)nn(C)c3C)c2n1CCCCN, amine bond, Cs2CO3, DMF, 205.0 mM, 60.0 °C) of 6.6%.

For the molecule `CCc1c2c(nn1C)COCCC(F)(F)Cn1c(C(=O)O)c(CCCOc3cccc4cc(F)ccc34)c3ccc(Cl)c-2c31` (racemic) [Example 96, (rac)-4-chloro-3-ethyl-11,11-difluoro-7-{3-[(6-fluoronaphthalen-1-yl)oxy]propyl}-2-methyl-2,10,11,12,13,15-hexahydropyrazolo[4′,3′:9,10][1,6]oxazacycloundecino[8,7,6-hi]indole-8-carboxylic acid], the EC50 is 480 nM with SUDHL5 cells [1] (Homo sapiens, SU-DHL-5, 3 h) and 210 nM in the data set with SUDHL10 cells [3] (Homo sapiens, SU-DHL10, 3 h). Also, the IC50 was found to be 4.7e-07 M in the data set with SUDHL5 cells [2] (setting [6]); 5.3e-06 M with HMC-1-8 cells (72 h); 3.1e-07 M in the data set with SUDHL5 cells [4] (Homo sapiens, SU-DHL-5, 72 h); 3.5e-07 M in the data set with SUDHL10 cells [5] (setting [7]); 4.9e-07 M in the data set with AMO-1 cells (Homo sapiens, AMO1, 72 h).

Regarding `CCc1c2c(nn1C)CCCN(CC(F)F)CCn1c(C(=O)O)c(CCCOc3cccc4cc(F)ccc34)c3ccc(Cl)c-2c31` [Example 119, (+)-4-chloro-12-(2,2-difluoroethyl)-3-ethyl-7-{3-[(6-fluoronaphthalen-1-yl)oxy]propyl}-2-methyl-10,11,12,13,14,15-hexahydro-2H-pyrazolo[3′,4′:8,9][1,4]diazacycloundecino[10,11,1-hi]indole-8-carboxylic acid N-ethylethanamine salt], the EC50 with SUDHL5 cells [1] came to 110 nM; in the data set with SUDHL10 cells [3] it was 210 nM. Also, the IC50 with SUDHL5 cells [2] (read-out: Cytotox SUDHL5 [M] (median), IC50, median) amounted to 1.4e-07 M; with HMC-1-8 cells it was 1.3e-06 M; in the data set with SUDHL5 cells [4], 3.1e-07 M; in the data set on SUDHL10 cells [5] (read-out: Cytotox SUDHL10 [M] (median), IC50, median) it was 2.9e-07 M; in the data set with AMO-1 cells it was 3.6e-07 M.

`CCc1c2c(nn1C)CCCN(CCCCO)CCn1c(C(=O)O)c(CCCOc3cccc4cc(F)ccc34)c3ccc(Cl)c-2c31` (racemic) [Example 122, (rac)-4-chloro-3-ethyl-7-{3-[(6-fluoro-1-naphthyl)oxy]propyl}-12-(4-hydroxybutyl)-2-methyl-10,11,12,13,14,15-hexahydro-2H-pyrazolo[3′,4′:8,9][1,4]diazacycloundecino[10,11,1-hi]indole-8-carboxylic acid]: the concentration giving a half-maximal response (EC50) in the data set with SUDHL5 cells [1] (Homo sapiens, SU-DHL-5, 3 h) amounted to 920 nM; with SUDHL10 cells [3] (Homo sapiens, SU-DHL10, 3 h) it was 750 nM. For the same molecule, the IC50 in the data set on SUDHL5 cells [2] (setting [6]) stood at 1.1e-06 M; in the data set on HMC-1-8 cells (72 h) it was 6.6e-06 M; in the data set with SUDHL5 cells [4] (Homo sapiens, SU-DHL-5, 72 h), 6.8e-07 M; in the data set on SUDHL10 cells [5] (setting [7]), 1.1e-06 M; in the data set on AMO-1 cells (Homo sapiens, AMO1, 72 h) it was 5.1e-07 M.

Consider `Cc1c2c(nn1C)COCC1CC1Cn1c(C(=O)O)c(CCCOc3cccc4ccccc34)c3ccc(Cl)c-2c31` (single isomer, unassigned) [Example 83, 3-chloro-4,5-dimethyl-14-{3-[(naphthalen-1-yl)oxy]propyl}-5,7,9a,10,10a,11-hexahydro-9H-cyclopropa[3,4]pyrazolo[4′,3′:9,10][1,6]oxazacycloundecino[8,7,6-hi]indole-13-carboxylic acid], for which the EC50 in the data set with SUDHL5 cells [1] (listed as 083) was 220 nM; in the data set with SUDHL10 cells [3] (listed as 083), 410 nM. The IC50 in the data set with SUDHL5 cells [2] (read-out: Cytotox SUDHL5 [M] (median), IC50, median, listed as 083) amounted to 5.8e-07 M; with HMC-1-8 cells (72 h), 7.4e-06 M; in the data set on SUDHL5 cells [4] (listed as 083) it was 5.2e-07 M; with SUDHL10 cells [5] (read-out: Cytotox SUDHL10 [M] (median), IC50, median, listed as 083), 5.9e-07 M; in the data set on AMO-1 cells (listed as 083), 3.8e-07 M.

For `CCOC(=O)c1c(CCCOc2cccc3ccccc23)c2ccc(Cl)c3c2n1CC(F)(F)C(F)(F)COCc1nn(C)c(C)c1-3`, under “from CCOC(=O)c1[nH]c2c(-c3c(COCC(F)(F)C(F)(F)COS(C)(=O)=O)nn(C)c3C)c(Cl)ccc2c1CCCOc1cccc2ccccc12, amine bond, Cs2CO3, DMF, 2.12 mM”, the ring closure, yield of all isomers worked out at 7.6%.

Source of the values: patent US11478451B1, “Macrocyclic chlorine substituted indole derivatives” (Bayer Aktiengesellschaft, priority 2017, dated 2022).
